From patent US11459325B2, “Heterocyclic compound” (Takeda Pharmaceutical Company Limited, priority 2018, dated 2022) come the findings set out here.

Structures are written as SMILES.

The test system of the assay is GBA mutant human fibroblasts GM008760. Nature of the assay: Glucosylceramide lowering assay. In kind it is cell-based. The following applies: Homo sapiens, Fibroblast, 96 h; 10 μM test compound, 4 days culture; GlcCer (C16:0)/Cer (C16:0) molar ratio of test compound group relative to DMSO control group x100; smaller value = glucosylceramide lowering. As to the method: Glucosylceramide Lowering Assay
Using GBA mutant human fibroblasts containing mutated glucosylceramidase, the effect of test compounds on glucosylceramide reduction was evaluated.
GBA mutant human fibroblasts GM008760 (Coriel Institute) were seeded in a 96-well multiwell plate at a density of 5,000 cells/100 μL culture solution/well. GlutaMAX (Thermo Fishcer Scientific), penicillin-streptomycin, and Minimum Essential Media (Thermo Fishcer Scientific) supplemented with 15% fetal bovine serum were used as a culture solution. After culturing for 2 days, a 10 mM DMSO solution of the test compound diluted with the culture solution was added to a 96-well plate by 100 μL to adjust a final test compound concentration to 10 μM. After culturing the cells for 4 days in the presence of the test compound, the culture solution was removed, and the cells adhered to the 96-well plate were washed with a phosphate buffer (ThermoFisher Scientific, product number 14190-144). A solvent composed of 50% ethanol and 50% isopropanol was added to the 96-well plate by 100 μL, and the intracellular lipids were dissolved by pipetting. A solution prepared by dissolving N-Octadecanoyl-D35-psychosine (50 ng/mL, Matreya LLC Inc.) as an internal standard in 50% ethanol and 50% isopropanol was added to the sample in an equal volume, and 2.5 μL of the centrifuged supernatant was used as the test compound group.
In the same manner as above, a control group was prepared by using DMSO instead of the 10 mM DMSO solution of the test compound.
For the test compound group and the control group, molar concentrations of glucosylceramide [GlcCer (C16:0)] and ceramide [Cer (C16:0)] were quantified using Rapidfire-MS/MS (API-5000, Turbo-ESI, SRM), and the glucosylceramide lowering effect of the test compound group relative to the control group was evaluated by the following formula. (GlcCer/Cer of test compound group)/(GlcCer/Cer of control group)×100 wherein GlcCer/Cer is the ratio of the molar concentration of glucosylceramide to that of ceramide.
In this test, when the numerical value obtained by the above calculation formula is small, glucosylceramide is metabolized to ceramide by the test compound, or the synthesis of glucosylceramide from ceramide is inhibited by the test compound, that is, it can be said that the test compound has a glucosylceramide lowering effect.
Regarding `Cc1cn(C)c(=O)c2c(C(=O)N3CCC3c3ccccc3)cn(C)c12` (stereo not shown) [Example 83, 1,5,7-trimethyl-3-((2-phenylazetidin-1-yl)carbonyl)-1,5-dihydro-4H-pyrrolo[3,2-c]pyridin-4-one], the activity at 10 µM amounted to 49%.
With `COc1ccccc1-n1cc(C)c2c(c(C(=O)NC3CCCCC3)cn2C)c1=O` [Example 107, N-cyclohexyl-5-(2-methoxyphenyl)-1,7-dimethyl-4-oxo-4,5-dihydro-1H-pyrrolo[3,2-c]pyridine-3-carboxamide], the activity at 10 µM stood at 50%.
Consider `COc1ccccc1-n1cc(C)c2c(c(C(=O)Nc3ccccc3)cn2C)c1=O` [Example 108, 5-(2-methoxyphenyl)-1,7-dimethyl-4-oxo-N-phenyl-4,5-dihydro-1H-pyrrolo[3,2-c]pyridine-3-carboxamide], for which the activity at 10 µM was found to be 67%.
In the case of `Cc1cn(C)c(=O)c2c(C(=O)N3CC4CC4(c4cccc(Cl)c4)C3)cn(C)c12` (stereo not shown) [Example 118, 3-((1-(3-chlorophenyl)-3-azabicyclo[3.1.0]hex-3-yl)carbonyl)-1,5,7-trimethyl-1,5-dihydro-4H-pyrrolo[3,2-c]pyridin-4-one], the activity at 10 µM came to 59%.
Regarding `Cc1cn(C)c(=O)c2c(C(=O)N3CC4CC4(c4ccc(Cl)c(Cl)c4)C3)cn(C)c12` (stereo not shown) [Example 120, 3-((1-(3,4-dichlorophenyl)-3-azabicyclo[3.1.0]hex-3-yl)carbonyl)-1,5,7-trimethyl-1,5-dihydro-4H-pyrrolo[3,2-c]pyridin-4-one], the activity at 10 µM worked out at 50%.
On to `Cc1cn(C)c(=O)c2c(C(=O)N3CC4CC4(c4cccc(Cl)c4Cl)C3)cn(C)c12` (stereo not shown) [Example 121, 3-((1-(2,3-dichlorophenyl)-3-azabicyclo[3.1.0]hex-3-yl)carbonyl)-1,5,7-trimethyl-1,5-dihydro-4H-pyrrolo[3,2-c]pyridin-4-one], for which the activity at 10 µM was found to be 68%.
Regarding `Cc1cn(C)c(=O)c2c(C(=O)N3CC4CC4(c4cc(Cl)cc(Cl)c4)C3)cn(C)c12` (stereo not shown) [Example 122, 3-((1-(3,5-dichlorophenyl)-3-azabicyclo[3.1.0]hex-3-yl)carbonyl)-1,5,7-trimethyl-1,5-dihydro-4H-pyrrolo[3,2-c]pyridin-4-one], the activity at 10 µM is 54%.
Regarding `Cc1cn(C)c(=O)c2c(C(=O)N3CC4CC4(c4cc(Cl)ccc4Cl)C3)cn(C)c12` (stereo not shown) [Example 123, 3-((1-(2,5-dichlorophenyl)-3-azabicyclo[3.1.0]hex-3-yl)carbonyl)-1,5,7-trimethyl-1,5-dihydro-4H-pyrrolo[3,2-c]pyridin-4-one], the activity at 10 µM was found to be 47%.
In the case of `Cc1cn(C)c(=O)c2c(C(=O)N3CC4CC4(c4ccc(F)cc4)C3)cn(C)c12` (stereo not shown) [Example 124, 3-((1-(4-fluorophenyl)-3-azabicyclo[3.1.0]hex-3-yl)carbonyl)-1,5,7-trimethyl-1,5-dihydro-4H-pyrrolo[3,2-c]pyridin-4-one] it was 56%.
`Cc1cn(C)c(=O)c2c(C(=O)N3CC4CC4(c4ccccc4F)C3)cn(C)c12` (stereo not shown) [Example 126, 3-((1-(2-fluorophenyl)-3-azabicyclo[3.1.0]hex-3-yl)carbonyl)-1,5,7-trimethyl-1,5-dihydro-4H-pyrrolo[3,2-c]pyridin-4-one]: the activity at 10 µM was 61%.
As for `COc1ccc(C23CC2CN(C(=O)c2cn(C)c4c(C)cn(C)c(=O)c24)C3)cc1` (stereo not shown) [Example 127, 3-((1-(4-methoxyphenyl)-3-azabicyclo[3.1.0]hex-3-yl)carbonyl)-1,5,7-trimethyl-1,5-dihydro-4H-pyrrolo[3,2-c]pyridin-4-one], the activity at 10 µM is 65%.
For `Cc1cn(C)c(=O)c2c(C(=O)N3CC4CC4(c4ccc(OC(F)(F)F)cc4)C3)cn(C)c12` (stereo not shown) [Example 130, 1,5,7-trimethyl-3-((1-(4-(trifluoromethoxy)phenyl)-3-azabicyclo[3.1.0]hex-3-yl)carbonyl)-1,5-dihydro-4H-pyrrolo[3,2-c]pyridin-4-one], the activity at 10 µM stood at 21%.
The result for `Cc1cn(C)c(=O)c2c(C(=O)N3CC4CC4(c4cccc(OC(F)(F)F)c4)C3)cn(C)c12` (stereo not shown) [Example 131, 1,5,7-trimethyl-3-((1-(3-(trifluoromethoxy)phenyl)-3-azabicyclo[3.1.0]hex-3-yl)carbonyl)-1,5-dihydro-4H-pyrrolo[3,2-c]pyridin-4-one] reads 63%; that for `Cc1cn(C)c(=O)c2c(C(=O)N3CC4CC4(c4ccccc4C(F)(F)F)C3)cn(C)c12` (stereo not shown) [Example 137, 1,5,7-trimethyl-3-((1-(2-(trifluoromethyl)phenyl)-3-azabicyclo[3.1.0]hex-3-yl)carbonyl)-1,5-dihydro-4H-pyrrolo[3,2-c]pyridin-4-one], 64%; that for `Cc1cn(C)c(=O)c2c(C(=O)N3CC4CC4(c4ccc(C(F)(F)F)c(F)c4)C3)cn(C)c12` (stereo not shown) [Example 138, 3-((1-(3-fluoro-4-(trifluoromethyl)phenyl)-3-azabicyclo[3.1.0]hex-3-yl)carbonyl)-1,5,7-trimethyl-1,5-dihydro-4H-pyrrolo[3,2-c]pyridin-4-one], 39%.
In the case of `Cc1cn(C)c(=O)c2c(C(=O)N3CC4CC4(c4ccc(OC(F)(F)F)c(F)c4)C3)cn(C)c12` (stereo not shown) [Example 139, 3-((1-(3-fluoro-4-(trifluoromethoxy)phenyl)-3-azabicyclo[3.1.0]hex-3-yl)carbonyl)-1,5,7-trimethyl-1,5-dihydro-4H-pyrrolo[3,2-c]pyridin-4-one] it was 37%.
For `Cc1cn(C)c(=O)c2c(C(=O)N3CC4CC4(c4cc(Cl)cc(C(F)(F)F)c4)C3)cn(C)c12` (stereo not shown) [Example 140, 3-((1-(3-chloro-5-(trifluoromethyl)phenyl)-3-azabicyclo[3.1.0]hex-3-yl)carbonyl)-1,5,7-trimethyl-1,5-dihydro-4H-pyrrolo[3,2-c]pyridin-4-one], the activity at 10 µM came to 49%.
In the case of `Cc1cn(C)c(=O)c2c(C(=O)N3CC4CC4(c4ccc(Cl)c(C(F)(F)F)c4)C3)cn(C)c12` (stereo not shown) [Example 141, 3-((1-(4-chloro-3-(trifluoromethyl)phenyl)-3-azabicyclo[3.1.0]hex-3-yl)carbonyl)-1,5,7-trimethyl-1,5-dihydro-4H-pyrrolo[3,2-c]pyridin-4-one] it was 47%; in that of `Cc1ccc(C23CN(C(=O)c4cn(C)c5c(C)cn(C)c(=O)c45)CC2C3(F)F)cc1` (stereo not shown) [Example 146, 3-((6,6-difluoro-1-(4-methylphenyl)-3-azabicyclo[3.1.0]hex-3-yl)carbonyl)-1,5,7-trimethyl-1,5-dihydro-4H-pyrrolo[3,2-c]pyridin-4-one], 65%; in that of `Cc1cn(C)c(=O)c2c(C(=O)N3CC4CC4(c4ccccc4OC(F)(F)F)C3)cn(C)c12` (stereo not shown) [Example 151, 1,5,7-trimethyl-3-((1-(2-(trifluoromethoxy)phenyl)-3-azabicyclo[3.1.0]hex-3-yl)carbonyl)-1,5-dihydro-4H-pyrrolo[3,2-c]pyridin-4-one], 46%.
Regarding `Cc1cn(C)c(=O)c2c(C(=O)N3CCC4(c5ccc(Cl)cc5)C(C3)C4(F)F)cn(C)c12` (stereo not shown) [Example 153, 3-((6-(4-chlorophenyl)-7,7-difluoro-3-azabicyclo[4.1.0]hept-3-yl)carbonyl)-1,5,7-trimethyl-1,5-dihydro-4H-pyrrolo[3,2-c]pyridin-4-one], the activity at 10 µM was found to be 60%.
Consider `Cc1cn(C)c(=O)c2c(C(=O)N3CCC4(c5cccc(Cl)c5)C(C3)C4(F)F)cn(C)c12` (stereo not shown) [Example 155, 3-((6-(3-chlorophenyl)-7,7-difluoro-3-azabicyclo[4.1.0]hept-3-yl)carbonyl)-1,5,7-trimethyl-1,5-dihydro-4H-pyrrolo[3,2-c]pyridin-4-one], for which the activity at 10 µM was 53%.
In the case of `Cc1cn(C)c(=O)c2c(C(=O)N3CCC(F)(c4ccc(Cl)cc4)C3)cn(C)c12` (stereo not shown) [Example 168, 3-((3-(4-chlorophenyl)-3-fluoropyrrolidin-1-yl)carbonyl)-1,5,7-trimethyl-1,5-dihydro-4H-pyrrolo[3,2-c]pyridin-4-one], the activity at 10 µM turned out to be 40%.
For the molecule `Cc1cn(C)c(=O)c2c(C(=O)N3CCC(Oc4cccc(C(F)(F)F)c4)CC3)cn(C)c12` [Example 176, 1,5,7-trimethyl-3-((4-(3-(trifluoromethyl)phenoxy)piperidin-1-yl)carbonyl)-1,5-dihydro-4H-pyrrolo[3,2-c]pyridin-4-one], the activity at 10 µM turned out to be 56%.
`Cc1cn(C)c(=O)c2c(C(=O)N3CCC(Oc4ccc(Cl)c(Cl)c4)CC3)cn(C)c12` [Example 178, 3-((4-(3,4-dichlorophenoxy)piperidin-1-yl)carbonyl)-1,5,7-trimethyl-1,5-dihydro-4H-pyrrolo[3,2-c]pyridin-4-one]: the activity at 10 µM was 42%.
